ChEMBL document CHEMBL3734713, “4-Thiazolidinone derivatives as potent antimicrobial agents: microwave-assisted synthesis, biological evaluation and docking studies” (2015)
Values after ≈ are worked out from the molar mass of the structure shown.

How the values were obtained:
Salmonella typhimurium = assay: Antibacterial activity against Salmonella typhimurium ATCC 13311 assessed as growth inhibition after 24 hrs at 37 degC by iodonitrotetrazolium chloride staining based microdilution broth assay; format: functional, Salmonella enterica subsp. enterica serovar Typhimurium; conditions: Salmonella enterica, ATCC 13311, 24 h
Aspergillus ochraceus = assay: Antifungal activity against Aspergillus ochraceus ATCC 12066 assessed as growth inhibition after 72 hrs at 28 degC by serial dilution method; format: functional; conditions: for MIC: Aspergillus ochraceus, ATCC 12066, 72 h
Listeria monocytogenes = assay: Antibacterial activity against Listeria monocytogenes NCTC 7973 assessed as growth inhibition after 24 hrs at 37 degC by iodonitrotetrazolium chloride staining based microdilution broth assay; format: functional; conditions: NCTC 7973, 24 h
Escherichia coli = assay: Antibacterial activity against Escherichia coli ATCC 35210 assessed as growth inhibition after 24 hrs at 37 degC by iodonitrotetrazolium chloride staining based microdilution broth assay; format: functional; conditions: ATCC 35210, 24 h
Candida albicans = assay: Antifungal activity against Candida albicans ATCC 10231 assessed as growth inhibition after 72 hrs at 28 degC by serial dilution method; format: functional; conditions: for MIC: Candida albicans, ATCC 10231, 72 h
Trichoderma viride = assay: Antifungal activity against Trichoderma viride IAM 5061 assessed as growth inhibition after 72 hrs at 28 degC by serial dilution method; format: functional; conditions: for MIC: Trichoderma viride, IAM 5061, 72 h
Staphylococcus aureus = assay: Antibacterial activity against Staphylococcus aureus ATCC 6538 assessed as growth inhibition after 24 hrs at 37 degC by iodonitrotetrazolium chloride staining based microdilution broth assay; format: functional; conditions: ATCC 6538, 24 h
Penicillium ochrochloron = assay: Antifungal activity against Penicillium ochrochloron ATCC 9112 assessed as growth inhibition after 72 hrs at 28 degC by serial dilution method; format: functional; conditions: for MIC: Penicillium ochrochloron, ATCC 9112, 72 h
Micrococcus flavus = assay: Antibacterial activity against Micrococcus flavus ATCC 10240 assessed as growth inhibition after 24 hrs at 37 degC by iodonitrotetrazolium chloride staining based microdilution broth assay; format: functional; conditions: ATCC 10240, 24 h
Bacillus cereus = assay: Antibacterial activity against clinical isolates of Bacillus cereus assessed as growth inhibition after 24 hrs at 37 degC by iodonitrotetrazolium chloride staining based microdilution broth assay; format: functional
Aspergillus niger = assay: Antifungal activity against Aspergillus niger ATCC 6275 assessed as growth inhibition after 72 hrs at 28 degC by serial dilution method; format: functional; conditions: for MIC: Aspergillus niger, ATCC 6275, 72 h
Aspergillus fumigatus = assay: Antifungal activity against Aspergillus fumigatus ATCC 1022 assessed as growth inhibition after 72 hrs at 28 degC by serial dilution method; format: functional; conditions: for MIC: Aspergillus fumigatus, ATCC 1022, 72 h
Pseudomonas aeruginosa = assay: Antibacterial activity against Pseudomonas aeruginosa ATCC 27853 assessed as growth inhibition after 24 hrs at 37 degC by iodonitrotetrazolium chloride staining based microdilution broth assay; format: functional; conditions: ATCC 27853, 24 h
Enterobacter cloacae = assay: Antibacterial activity against human isolate of Enterobacter cloacae assessed as growth inhibition after 24 hrs at 37 degC by iodonitrotetrazolium chloride staining based microdilution broth assay; format: functional
Aspergillus versicolor = assay: Antifungal activity against Aspergillus versicolor ATCC 11730 assessed as growth inhibition after 72 hrs at 28 degC by serial dilution method; format: functional; conditions: for MIC: Aspergillus versicolor, ATCC 11730, 72 h
[1] = target: Human immunodeficiency virus type 1 reverse transcriptase (Human immunodeficiency virus 1) (UniProt Q72547); assay: Inhibition of HIV1 reverse transcriptase assessed as residual enzyme activity by measuring reduction in [3H]dTTP incorporation into poly(rA)-oligo(dT) at 4 uM incubated for 15 mins by scintillation counting method relative to control
Talaromyces funiculosus = assay: Antifungal activity against Penicillium funiculosum ATCC 36839 assessed as growth inhibition after 72 hrs at 28 degC by serial dilution method; format: functional; conditions: for MIC: Talaromyces funiculosus, ATCC 36839, 72 h

Row | SMILES | MBC (Salmonella typhimurium) [µM] | MIC (Salmonella typhimurium) [µM] | MFC99.5 (Aspergillus ochraceus) [×10⁻² umol/ml] | MIC (Aspergillus ochraceus) [µM] | MBC (Listeria monocytogenes) [µM] | MIC (Listeria monocytogenes) [µM] | MBC (Escherichia coli) [µM] | MIC (Escherichia coli) [µM] | MFC99.5 (Candida albicans) [×10⁻² umol/ml] | MIC (Candida albicans) [µM] | MFC99.5 (Trichoderma viride) [×10⁻² umol/ml] | MIC (Trichoderma viride) [µM] | MBC (Staphylococcus aureus) [µM] | MIC (Staphylococcus aureus) [µM] | MFC99.5 (Penicillium ochrochloron) [×10⁻² umol/ml] | MIC (Penicillium ochrochloron) [µM] | MBC (Micrococcus flavus) [µM] | MIC (Micrococcus flavus) [µM] | MBC (Bacillus cereus) [µM] | MIC (Bacillus cereus) [µM] | further results
1 | COc1ccc(C2SCC(=O)N2c2nc(C34CC5CC(CC(C5)C3)C4)cs2)cc1 (stereo unspecified) | 62.5 (≈ 26.7 µg/mL) | 30.6 (≈ 13.1 µg/mL) | 0.29 | 1.4 (≈ 0.597 µg/mL) | 125 (≈ 53.3 µg/mL) | 62.5 (≈ 26.7 µg/mL) | 125 (≈ 53.3 µg/mL) | 30.6 (≈ 13.1 µg/mL) | 2.34 | 11.7 (≈ 4.99 µg/mL) | 0.29 | 1.4 (≈ 0.597 µg/mL) | 62.5 (≈ 26.7 µg/mL) | 30.6 (≈ 13.1 µg/mL) | 0.14 | 0.9 (≈ 0.384 µg/mL) | 125 (≈ 53.3 µg/mL) | 62.5 (≈ 26.7 µg/mL) | 30.6 (≈ 13.1 µg/mL) | 16.3 (≈ 6.95 µg/mL) | MFC99.5 (Aspergillus niger): 0.58 ×10⁻² umol/ml; MIC (Aspergillus niger): 2.9 µM (≈ 1.24 µg/mL); MFC99.5 (Aspergillus fumigatus): 2.34 ×10⁻² umol/ml; MIC (Aspergillus fumigatus): 11.7 µM (≈ 4.99 µg/mL); MBC (Pseudomonas aeruginosa): 62.5 µM (≈ 26.7 µg/mL); MIC (Pseudomonas aeruginosa): 30.6 µM (≈ 13.1 µg/mL); MBC (Enterobacter cloacae): 125 µM (≈ 53.3 µg/mL); MIC (Enterobacter cloacae): 30.6 µM (≈ 13.1 µg/mL); MFC99.5 (Aspergillus versicolor): 0.58 ×10⁻² umol/ml; MIC (Aspergillus versicolor): 2.9 µM (≈ 1.24 µg/mL); Activity [1]: 100%; MFC99.5 (Talaromyces funiculosus): 0.58 ×10⁻² umol/ml; MIC (Talaromyces funiculosus): 2.9 µM (≈ 1.24 µg/mL)
2 | O=C1CSC(c2ccc(Cl)cc2)N1c1nc(C23CC4CC(CC(C4)C2)C3)cs1 (stereo unspecified) | 62.5 (≈ 26.9 µg/mL) | 16.2 (≈ 7 µg/mL) | 0.07 | 0.5 (≈ 0.216 µg/mL) | 125 (≈ 53.9 µg/mL) | 62.5 (≈ 26.9 µg/mL) | 125 (≈ 53.9 µg/mL) | 62.5 (≈ 26.9 µg/mL) | 1.16 | 5.8 (≈ 2.5 µg/mL) | 0.05 | 0.3 (≈ 0.129 µg/mL) | 62.5 (≈ 26.9 µg/mL) | 16.2 (≈ 7 µg/mL) | 0.07 | 0.3 (≈ 0.129 µg/mL) | 62.5 (≈ 26.9 µg/mL) | 30.6 (≈ 13.2 µg/mL) | 62.5 (≈ 26.9 µg/mL) | 16.2 (≈ 7 µg/mL) | MFC99.5 (Aspergillus niger): 0.07 ×10⁻² umol/ml; MIC (Aspergillus niger): 0.45 µM (≈ 0.194 µg/mL); MFC99.5 (Aspergillus fumigatus): 0.07 ×10⁻² umol/ml; MIC (Aspergillus fumigatus): 0.45 µM (≈ 0.194 µg/mL); MBC (Pseudomonas aeruginosa): 125 µM (≈ 53.9 µg/mL); MIC (Pseudomonas aeruginosa): 16.2 µM (≈ 7 µg/mL); MBC (Enterobacter cloacae): 125 µM (≈ 53.9 µg/mL); MIC (Enterobacter cloacae): 62.5 µM (≈ 26.9 µg/mL); MFC99.5 (Aspergillus versicolor): 0.07 ×10⁻² umol/ml; MIC (Aspergillus versicolor): 0.5 µM (≈ 0.216 µg/mL); Activity [1]: 99%; MFC99.5 (Talaromyces funiculosus): 0.07 ×10⁻² umol/ml; MIC (Talaromyces funiculosus): 0.45 µM (≈ 0.194 µg/mL)
